Converted amounts (≈) assume the structure as drawn. Where two headings read alike, the source gives them in different places.
Experiments:
[1] = system: Pseudomonas aeruginosa No. 12; assay: Minimum inhibitory concentration, serial dilution on nutrient agar; format: cell-based; details: NO.12, nutrient agar, 37° C., 18 hours incubation, read-out: MIC
[2] = system: Providencia 2991; assay: as above; format: cell-based; details: 37° C., 18 hours incubation
[3] = system: Escherichia coli K-12 LA 290 R55; assay: as above; format: cell-based; details: K12LA290R55, 18 h
[4] = system: Serratia marcescens; assay: as above; format: cell-based; details: 37° C., 18 hours incubation
[5] = system: Micrococcus flavus FDA 16; assay: as above; format: cell-based; details: FDA16, nutrient agar, 37° C., 18 hours incubation, read-out: MIC
[6] = system: Klebsiella pneumoniae 22 #3038; assay: as above; format: cell-based; details: nutrient agar, 37° C., 18 hours incubation, read-out: MIC
[7] = system: Pseudomonas aeruginosa GN315; assay: as above; format: cell-based; details: GN315, nutrient agar, 37° C., 18 hours incubation, read-out: MIC
[8] = system: Pseudomonas aeruginosa ROS134/PU21; assay: as above; format: cell-based; details: ROS134/PU21, 18 h
[9] = system: Bacillus subtilis NRRL B-558; assay: as above; format: cell-based; details: NRRLB558, 37° C., 18 hours incubation
[10] = system: Escherichia coli K-12 R 388; assay: as above; format: cell-based; details: K12R388, 18 h
[11] = system: Klebsiella pneumoniae PCI 602; assay: as above; format: cell-based; details: PCI602, nutrient agar, 37° C., 18 hours incubation, read-out: MIC
[12] = system: Proteus rettgeri GN311; assay: as above; format: cell-based; details: Providencia rettgeri, 37° C., 18 hours incubation
[13] = system: Escherichia coli JR255; assay: as above; format: cell-based; details: JR255, nutrient agar, 37° C., 18 hours incubation, read-out: MIC
[14] = Acute toxicity by intravenous injection in mice; details: mouse, in vivo
[15] = system: Staphylococcus aureus 209P; assay: Minimum inhibitory concentration, serial dilution on nutrient agar; format: cell-based; details: 37° C., 18 hours incubation
[16] = system: Pseudomonas aeruginosa K-Ps102; assay: as above; format: cell-based
[17] = system: Mycobacterium smegmatis ATCC 607; assay: as above; format: cell-based; details: Mycolicibacterium smegmatis
[18] = system: Escherichia coli K-12 ML 1629; assay: as above; format: cell-based; details: K12ML1629, nutrient agar, 37° C., 18 hours incubation, read-out: MIC
[19] = system: Pseudomonas aeruginosa 21-75; assay: as above; format: cell-based; details: 2175, 37° C., 18 hours incubation
[20] = system: Escherichia coli W677; assay: as above; format: cell-based; details: W677, nutrient agar, 37° C., 18 hours incubation, read-out: MIC
[21] = system: Proteus rettgeri GN466; assay: as above; format: cell-based; details: Providencia rettgeri, GN466; nutrient agar, 37° C., 18 hours incubation; read-out: MIC
[22] = system: Escherichia coli K-12 LA 290 R64; assay: as above; format: cell-based; details: K12LA290R64, 18 h
[23] = system: Pseudomonas maltophilia GN907; assay: as above; format: cell-based; details: Stenotrophomonas maltophilia, 37° C., 18 hours incubation
[24] = system: Pseudomonas aeruginosa B-13; assay: as above; format: cell-based; details: B13, 37° C., 18 hours incubation
[25] = system: Shigella flexneri 4b JS11811; assay: as above; format: cell-based; details: 4BJS11811, 37° C., 18 hours incubation
Description: (§1) The minimum inhibitory concentration (mcg/ml) of 1-N-[(S)-4-amino-2-hydroxybutyryl]-5,3',4'-trideoxykanamycin B (abbreviated as AHB-trideoxyKMB), 1-N-[(RS)-3-amino-2-hydroxypropionyl]-5,3',4'-trideoxykanamycin B (abbreviated as AHP-trideoxy-KMB) and 1-N-[(S)-4-amino-2-hydroxybutyryl]-5,3',4',6"-tetradeoxykanamycin B (abbreviated as AHB-tetradeoxyKMB) of the formula (II) according to this invention as well as of the new compound 5,3',4',6"-tetradeoxykanamycin B (abbreviated as tetradeoxyKMB) of the formula (III) according to this invention against various microorganisms were determined according to serial dilution method on a nutrient agar medium at 37° C., the estimation being made after 18 hours incubation. For comparison purpose, the minimum inhibitory concentrations of habekacin were also determined in the same manner as stated above.
(§2) The minimum inhibitory concentrations (mcg/ml) of 1-N-[(S)-4-amino-2-hydroxybutyryl]-5,3',4'-trideoxy-6'-N-methylkanamycin B (abbreviated as AHB-trideoxyMKMB), 1-N-[(RS)-3-amino-2-hydroxypropionyl]-5,3',4'-trideoxy-6'-N-methylkanamycin B (abbreviated as AHP-trideoxyMKMB) and 1-N-[(S)-5-amino-2-hydroxyvaleryl]-5,3',4'-trideoxy-6'-N-methylkanamycin B (abbreviated as AHV-trideoxyMKMB) of the formula (IV) according to this invention as well as of the new compound 5,3',4'-trideoxy-6'-N-methylkanamycin B (abbreviated as trideoxyMKMB) of the formula (V) according to this invention against various microorganisms were determined according to serial dilution method on a nutrient agar medium at 37° C., the estimation being made after 18 hours incubation. For comparison purpose, the minimum inhibitory concentrations of 1-N-[(S)-4-amino-2-hydroxybutyryl]-3',4'-dideoxykanamycin B (ie. habekacin) were also determined in the same manner as stated above.

[26] = system: Shigella sonnei JS11746; assay: as above; format: cell-based; details: 37° C., 18 hours incubation
Description: as §1, §2

[27] = system: Escherichia coli K-12 J5R 11-2; assay: as above; format: cell-based; details: K12J5R112, 37° C., 18 hours incubation
Description: as §1, §2

[28] = system: Escherichia coli K-12 C 600R/35; assay: as above; format: cell-based; details: K12C600R/35, 37° C., 18 hours incubation
Description: as §1, §2

[29] = system: Escherichia coli K-12 ML 1630; assay: as above; format: cell-based; details: K12ML1630, 37° C., 18 hours incubation
Description: as §1, §2

[30] = system: Escherichia coli K-12 R5; assay: as above; format: cell-based; details: K12R5, 18 h

SMILES	MIC [1] [µg/mL]	MIC [2] [µg/mL]	MIC [3] [µg/mL]	MIC [4] [µg/mL]	MIC [5] [µg/mL]	MIC [6] [µg/mL]	MIC [7] [µg/mL]	MIC [8] [µg/mL]	MIC [9] [µg/mL]	MIC [10] [µg/mL]	MIC [11] [µg/mL]	MIC [12] [µg/mL]	MIC [13] [µg/mL]	LD50 [14] [mg/kg]	MIC [15] [µg/mL]	MIC [18] [µg/mL]	MIC [19] [µg/mL]	MIC [20] [µg/mL]	MIC [21] [µg/mL]	MIC [22] [µg/mL]	other results
C[C@H]1O[C@H](O[C@@H]2C[C@H](O[C@H]3O[C@H](CN)CC[C@H]3N)[C@@H](N)C[C@H]2N)[C@H](O)[C@@H](N)[C@@H]1O [TetradeoxyKMB, 5,3',4',6"-tetradeoxykanamycin B]	25 (≈ 59.6 µM)	> 100	> 100	100 (≈ 238 µM)	50 (≈ 119 µM)	100 (≈ 238 µM)	> 100	> 100	< 0.2	3.13 (≈ 7.46 µM)	3.13 (≈ 7.46 µM)	> 100	25 (≈ 59.6 µM)	25 to 50	3.13 (≈ 7.46 µM)	6.25 (≈ 14.9 µM)	> 100	6.25 (≈ 14.9 µM)	25 (≈ 59.6 µM)	100 (≈ 238 µM)	MIC ([16]; KPS102, 18 h): 12.5 µg/mL (≈ 29.8 µM); MIC ([17]; ATCC607, nutrient agar, 37° C., 18 hours incubation, read-out: MIC): 0.78 µg/mL (≈ 1.86 µM); MIC [23]: > 100 µg/mL; MIC [24]: 50 µg/mL (≈ 119 µM); MIC [25]: 25 µg/mL (≈ 59.6 µM); MIC [26]: 12.5 µg/mL (≈ 29.8 µM); MIC [27]: 6.25 µg/mL (≈ 14.9 µM); MIC [28]: 6.25 µg/mL (≈ 14.9 µM); MIC [29]: 12.5 µg/mL (≈ 29.8 µM); MIC [30]: > 100 µg/mL
CNC[C@@H]1CC[C@@H](N)[C@@H](O[C@H]2C[C@@H](O[C@H]3O[C@H](CO)[C@@H](O)[C@H](N)[C@H]3O)[C@H](N)C[C@@H]2N)O1 [TrideoxyMKMB, 5,3',4'-trideoxy-6'-N-methylkanamycin B]	25 (≈ 55.6 µM)	> 100	100 (≈ 222 µM)	100 (≈ 222 µM)	100 (≈ 222 µM)	100 (≈ 222 µM)	25 (≈ 55.6 µM)	> 100	0.78 (≈ 1.74 µM)	12.5 (≈ 27.8 µM)	12.5 (≈ 27.8 µM)	100 (≈ 222 µM)	100 (≈ 222 µM)	50 to 100	1.56 (≈ 3.47 µM)	25 (≈ 55.6 µM)	> 100	12.5 (≈ 27.8 µM)	25 (≈ 55.6 µM)	25 (≈ 55.6 µM)	MIC ([16]; KPS102, nutrient agar, 37° C., 18 hours incubation, read-out: MIC): 25 µg/mL (≈ 55.6 µM); MIC ([17]; ATCC607, 18 h): 6.25 µg/mL (≈ 13.9 µM); MIC [23]: > 100 µg/mL; MIC [24]: 100 µg/mL (≈ 222 µM); MIC [25]: 25 µg/mL (≈ 55.6 µM); MIC [26]: 25 µg/mL (≈ 55.6 µM); MIC [27]: 25 µg/mL (≈ 55.6 µM); MIC [28]: 12.5 µg/mL (≈ 27.8 µM); MIC [29]: 25 µg/mL (≈ 55.6 µM); MIC [30]: 50 µg/mL (≈ 111 µM)

— patent publication US4410516A, “1-N(αHydroxy-ω-aminoalkanoyl) derivatives of 5,3',4'-trideoxy- or 5,3', 4'-trideoxy-6'-N- methyl- or 5, 3', 4',6"-tetradeoxykannamyci B and production thereof” (Zaidan Hojin Biseibutsu Kagaku Kenkyu Kai, priority 1981, dated 1983)
